Assay [1] relates to Staphylococcus aureus ATCC 6538P. As to the kind of experiment: Antibacterial activity, agar dilution method (MIC). Format: cell-based. As to conditions: ATCC6538P. The text has this:
(§1) The antibacterial activity as determined by the agar dilution method using a medium prepared by dissolving 3 g of Bacto-Tryptone (a product of Difco Laboratories), 3 g of a meat extract, 1 g of an yeast extract, 1 g of glucose and 16 g of agar in one liter of water (pH 7).
SA: Staphylococcus aureus ATCC 6538P
A general note: In agar dilution the substance is mixed into plates at graded concentrations.

Assay [2] concerns Escherichia coli ATCC 26. As to the kind of experiment: Antibacterial activity, agar dilution method (MIC). Format: cell-based. As to conditions: Escherichia coli, ATCC26, pH 7, read-out: MIC (minimum growth inhibitory concentration), EC: Escherichia coli ATCC 26.
Excerpt: as §1
EC: Escherichia coli ATCC 26

The subject of assay [3] is Bacillus subtilis No. 10707. As to the kind of experiment: Antibacterial activity, agar dilution method (MIC). In kind it is cell-based.
Excerpt: as §1
BS: Bacillus subtilis No. 10707

Assay [4] deals with Enterococcus faecium ATCC 10541. Kind of assay: Antibacterial activity, agar dilution method (MIC). In kind it is cell-based.
Excerpt: as §1
EF: Enterococcus faecium ATCC 10541

Assay [5] relates to Klebsiella pneumoniae ATCC 10031. As to the kind of experiment: Antibacterial activity, agar dilution method (MIC). In kind it is cell-based.
Excerpt: as §1
KP: Klebsiella pneumoniae ATCC 10031

Assay [6] concerns P388 Leukemia. As to the kind of experiment: Antitumor activity against P388 leukemia in mice (increased life span). In kind it is in vivo, CDF1 mice. The note with it: Mus musculus, P388, ip, 720 h; for ILS at 4 mg/kg / ILS at 8 mg/kg: read-out: ILS (increased life span). The method, then:
Ascites were collected from the abdominal cavity of P388 ascites tumor-bearing cancer mice (DBA/2) on the 7th day after transplantation. A number of P388 cells in the ascites was counted, and a tumor cell floating liquid of 5×10^6 cells/ml was prepared using a physiological saline solution. Then, 0.2 ml of the solution containing 1×10^6 cells was transplanted into the abdominal cavity of CDF1 mice having a body weight of from 20 to 25 g.
The effect of the test compound was determined in terms of the ratio of average survival days of the group administered with the test compound to average survival days of the control group (non-medicated group) (i.e., an increased life span, ILS%).

Where [7] appears, read: Staphylococcus aureus, pH 7, read-out: MIC (minimum growth inhibitory concentration).
Setting [8] is: Bacillus subtilis, NO.10707, pH 7, read-out: MIC (minimum growth inhibitory concentration), BS: Bacillus subtilis No. 10707.
The mark [9] stands for this setting: Enterococcus faecium, ATCC10541, pH 7, read-out: MIC (minimum growth inhibitory concentration), EF: Enterococcus faecium ATCC 10541.
The mark [10] stands for this setting: Klebsiella pneumoniae, ATCC10031, pH 7, read-out: MIC (minimum growth inhibitory concentration).
Setting [11] is: single i.p. 24 hours after transplantation, CDF1 mice, 30 days observation.
[12] abbreviates: SA: Staphylococcus aureus ATCC 6538P, agar dilution, pH 7, read-out: MIC (minimum growth inhibitory concentration).
Where [13] appears, read: BS: Bacillus subtilis No. 10707, pH 7, read-out: MIC (minimum growth inhibitory concentration).
Where [14] appears, read: ATCC10541, EF: Enterococcus faecium ATCC 10541, pH 7, read-out: MIC (minimum growth inhibitory concentration).

In brackets after ≈: the same amount, converted by molar mass. Like-named read-outs stand apart in the source and are kept apart here.

This is an account of results in patent publication US5733924A, “DC 107 derivatives and treatment methods” (Kyowa Hakko Kogyo Co., Ltd., priority 1995, dated 1998).

`C/C1=C\C(OCOCc2ccccc2)C(=O)/C=C/C=C\c2csc(n2)C(C)N2C(=O)CC(C(C)(O)C(=O)SCc3oc(=O)oc3C)(CC1)[S+]2[O-]` (stereo not shown) [Compound 61]: the MIC is 0.65 µg/mL (≈ 0.875 µM) in assay [1] (setting [7]), 2.6 µg/mL (≈ 3.5 µM) in assay [2], 0.081 µg/mL (≈ 0.109 µM) in assay [3] (setting [8]) and 0.65 µg/mL (≈ 0.875 µM) in assay [4] (setting [9]).
Regarding `CC1=CC(OC(=O)CNC(=O)CN(C)C(=O)OCc2ccccc2)C(=O)C=CC=Cc2csc(n2)C(C)N2C(=O)CC(C(C)(O)C(=O)SCc3oc(=O)oc3C)(CC1)[S+]2[O-]` (stereo not shown) [Compound 172], the MIC came to 2.1 µg/mL (≈ 2.37 µM) in assay [1] (setting [7]), 1 µg/mL (≈ 1.13 µM) in assay [3] (setting [8]), 1 µg/mL (≈ 1.13 µM) in assay [5] (setting [10]) and 1 µg/mL (≈ 1.13 µM) in assay [4] (setting [9]). Also, the ILS (usually how much longer treated animals lived than controls) at 4 mg/kg in assay [6] was found to be 65%.
`C/C1=C\C(O)C(=O)/C=C/C=C\c2csc(n2)C(C)N2C(=O)CC(C(C)(O)C(=O)SCOC(=O)C3CCCCC3)(CC1)[S+]2[O-]` (stereo not shown) [Compound 80]: the MIC in assay [1] (setting [7]) is 2.6 µg/mL (≈ 3.99 µM); in assay [3] (setting [8]), 0.041 µg/mL (≈ 0.063 µM); in assay [4] (setting [9]) it was 5.2 µg/mL (≈ 7.99 µM).
For `C/C1=C\C(O)C(=O)/C=C/C=C\c2csc(n2)C(C)N2C(=O)CC(C(C)(O)C(=O)SCOC(=O)C3CCC3)(CC1)[S+]2[O-]` (stereo not shown) [Compound 78], the MIC in assay [1] (setting [7]) was found to be 4.7 µg/mL (≈ 7.55 µM); in assay [3] (setting [8]) it was 0.073 µg/mL (≈ 0.117 µM); in assay [5] (setting [10]), 2.3 µg/mL (≈ 3.69 µM); in assay [4] (setting [9]) it was 9.4 µg/mL (≈ 15.1 µM).
In the case of `C/C1=C\C(O)C(=NOCc2ccccc2)/C=C/C=C\c2csc(n2)C(C)N2C(=O)CC(C(C)(O)C(=O)SCc3oc(=O)oc3C)(CC1)[S+]2[O-]` (single isomer, unassigned) [Compound 73], the ILS at 4 mg/kg in assay [6] was 43%.
In the case of `C/C1=C\C(OC(=O)CCNC(=O)OCc2ccccc2)C(=O)/C=C/C=C\c2csc(n2)C(C)NC(=O)CC2(CC1)[S+]([O-])SC(=O)C2(C)O` (stereo not shown) [Compound 105], in assay [6] (4.0 mg/kg, single i.p. 24 hours after transplantation, CDF1 mice, 30 days observation), the ILS at 4 mg/kg stood at 53%.
For the compound `COC1(OC2C=C(C)CCC3(C(C)(O)C(=O)SCc4oc(=O)oc4C)CC(=O)N(C(C)c4nc(cs4)C=CC=CC2=O)[S+]3[O-])CCN(c2ccccc2)CC1` (stereo not shown) [Compound 131], the ILS at 8 mg/kg in assay [6] (setting [11]) is 60%.
Take `CC1=CC(OC2CCCCO2)C(=NO)C=CC=Cc2csc(n2)C(C)N2C(=O)CC(C(C)(O)C(=O)SCc3oc(=O)oc3C)(CC1)[S+]2[O-]` (stereo not shown) [Compound 125]: the ILS at 16 mg/kg in assay [6] (setting [11]) stood at 54%.
For `COC1(OC2C=C(C)CCC3(C(C)(O)C(=O)SCc4oc(=O)oc4C)CC(=O)N(C(C)c4nc(cs4)C=CC=CC2=O)[S+]3[O-])CCCCC1` (stereo not shown) [Compound 126], the MIC amounted to 1 µg/mL (≈ 1.36 µM) in assay [1] (setting [12]); 0.033 µg/mL (≈ 0.0449 µM) in assay [3] (setting [13]); 4.2 µg/mL (≈ 5.71 µM) in assay [5] (ATCC10031, KP: Klebsiella pneumoniae ATCC 10031, agar dilution, pH 7, read-out: MIC (minimum growth inhibitory concentration)); 1 µg/mL (≈ 1.36 µM) in assay [4] (setting [14]).
With `C/C1=C\C(OC(=O)OCC2c3ccccc3-c3ccccc32)C(=O)/C=C/C=C\c2csc(n2)C(C)NC(=O)CC2(CC1)[S+]([O-])SC(=O)C2(C)O` (stereo not shown) [Compound 15], the MIC in assay [1] (setting [12]) stood at 0.16 µg/mL (≈ 0.218 µM); in assay [3] (setting [13]), 0.041 µg/mL (≈ 0.0559 µM); in assay [4] (setting [14]), 0.081 µg/mL (≈ 0.111 µM). The compound also gave an increase in life span (ILS) at 16 mg/kg in assay [6] (setting [11]) of 63%.
Consider `COC1(OC2/C=C(\C)CCC3(CC(=O)NC(C)c4nc(cs4)/C=C\C=C\C2=O)[S+]([O-])SC(=O)C3(C)O)CCSCC1` (stereo not shown) [Compound 92], for which the ILS at 8 mg/kg in assay [6] (setting [11]) came out at 48%.
Regarding `C/C1=C\C(OC(=O)CNC(=O)CCCNC(=O)OCc2ccccc2)C(=O)/C=C/C=C\c2csc(n2)C(C)NC(=O)CC2(CC1)[S+]([O-])SC(=O)C2(C)O` (stereo not shown) [Compound 113], in assay [6] (setting [11]), the ILS at 16 mg/kg was determined as 58%.
As for `CC1=CC(OC(=O)CNC(=O)CCCNC(=O)OCc2ccccc2)C(=O)C=CC=Cc2csc(n2)C(C)N2C(=O)CC(C(C)(O)C(=O)SCc3oc(=O)oc3C)(CC1)[S+]2[O-]` (stereo not shown) [Compound 171], in assay [6] (setting [11]), the increase in lifespan (ILS) at 16 mg/kg was 63%.
